Source: patent EP0183129A1, “Quinolonecarboxylic acid derivatives” (KYORIN PHARMACEUTICAL CO., LTD., priority 1984, dated 1986)
In brackets after ≈: the same amount, converted by molar mass. Like-named read-outs stand apart in the source and are kept apart here.

What was measured:
[1] = test system: Bacillus subtilis PCI 219; test: In vitro antibacterial activity, MIC (standard strain); format: cell-based; details: PCI219
S. aureus Smith = test: as above; format: cell-based, Staphylococcus aureus; details: Staphylococcus aureus, S. aureus Smith, 10^6 cells/ml, standard strain
[2] = test system: S. aureus IID 670 (Terajima); test: as above; format: cell-based, Staphylococcus aureus; details: Staphylococcus aureus
S. epidermidis IID 866 = test: as above; format: cell-based; details: Staphylococcus epidermidis
S. pneumoniae IID 552 = test: as above; format: cell-based; details: Streptococcus pneumoniae, IID552; S. pneumoniae IID 552; 10^6 cells/ml; standard strain; read-out: MIC
S. faecalis IID 682 = test: as above; format: cell-based; details: Enterococcus faecalis, IID682; S. faecalis IID 682; 10^6 cells/ml; standard strain; read-out: MIC
[3] = test system: Enterobacter cloacae IID 977; test: as above; format: cell-based; details: Enterobacter cloacae, IID977, Enterobacter cloacae IID 977; 10^6 cells/ml; standard strain; read-out: MIC
[4] = test system: Klebsiella pneumoniae KY(GN)6445; test: as above; format: cell-based; details: Klebsiella pneumoniae KY(GN)6445; 10^6 cells/ml; standard strain; read-out: MIC
[5] = test system: Salmonella entritidis IID 604; test: as above; format: cell-based; details: IID604; Salmonella entritidis IID 604; 10^6 cells/ml; standard strain; read-out: MIC
Shigella sonnei IID 969 = test: as above; format: cell-based; details: IID969, 10^6 cells/ml
Protocol: Experiment-1 In vitro antibacterial activity
The in vitro antibacterial activity against gram-positive and gram-negative bacteria has been investivated.
The minimum inhibitory concentration (MIC) was determined in accordance with the method recommended by Japan Society of Chemotherapy.

[6] = test system: Pseudomonas aeruginosa V-1; test: as above; format: cell-based; details: V1; Pseudomonas aeruginosa V-1; 10^6 cells/ml; standard strain; read-out: MIC
P. aeruginosa IID 1210 = test: as above; format: cell-based; details: Pseudomonas aeruginosa, IID1210; P. aeruginosa IID 1210; 10^6 cells/ml; standard strain; read-out: MIC
[7] = test system: Bacteroides fragilis GM 7000; test: as above; format: cell-based; details: GM7000; Bacteroides fragilis GM 7000; 10^6 cells/ml; standard strain; read-out: MIC
B. fragilis 25285 = test: as above; format: cell-based, Bacteroides fragilis; details: Bacteroides fragilis, 25285, B. fragilis 25285; 10^6 cells/ml; standard strain; read-out: MIC
[8] = test system: Fusobacterium varium KYA 8501; test: as above; format: cell-based; details: Fusobacterium varium, KYA8501, Fusobacterium varium KYA 8501; 10^6 cells/ml; standard strain; read-out: MIC
C. ramosum = test: as above; format: cell-based; details: Thomasclavelia ramosa; C. ramosum; 10^6 cells/ml; standard strain; read-out: MIC
S. pyogenes 3107 = test: In vitro antibacterial activity, MIC (clinical isolates); format: cell-based; details: Streptococcus pyogenes; S. pyogenes 3107; 10^6 cells/ml; clinical isolate; read-out: MIC
S. pyogenes 4372 = test: as above; format: cell-based; details: Streptococcus pyogenes; S. pyogenes 4372; 10^6 cells/ml; clinical isolate; read-out: MIC
S. agalactiae 4394 = test: as above; format: cell-based; details: Streptococcus agalactiae; S. agalactiae 4394; 10^6 cells/ml; clinical isolate; read-out: MIC
S. agalactiae 4468 = test: as above; format: cell-based; details: Streptococcus agalactiae; S. agalactiae 4468; 10^6 cells/ml; clinical isolate; read-out: MIC
S. faecalis 49 = test: as above; format: cell-based; details: Enterococcus faecalis; S. faecalis 49; 10^6 cells/ml; clinical isolate; read-out: MIC
S. faecalis 214 = test: as above; format: cell-based; details: Enterococcus faecalis; S. faecalis 214; 10^6 cells/ml; clinical isolate; read-out: MIC
S. faecalis 401 = test: as above; format: cell-based; details: Enterococcus faecalis; S. faecalis 401; 10^6 cells/ml; clinical isolate; read-out: MIC
E. coli ML4707 = test: In vivo antibacterial activity against systemic infection in mice; design: species or system mice (ICR-S); details: for ED50: Escherichia coli, ML4707, mice (ICR-S), oral, an hour after intraperitoneal infection, challenge dose 2.7 x 10^6 ~ 8.8 x 10^6 cfu/mouse, read-out: ED50 E. coli ML4707
Protocol: Experiment-2 In vivo antibacterial activity against systemic infection in mice (ICR-S)
The infections were produced by intraperitoneal injection of a suspension of the bacterial culture corresponding to the germ studied. The products were administered orally at an hour after the infection.

[9] = Bacillus subtilis PCI 219, 10^6 cells/ml, standard strain, read-out: MIC
[10] = IID670, S. aureus IID 670 (Terajima), 10^6 cells/ml, standard strain, read-out: MIC
[11] = IID866, S. epidermidis IID 866, 10^6 cells/ml, standard strain, read-out: MIC

SMILES	MIC (S. pneumoniae IID 552) [µg/mL]	MIC (S. faecalis IID 682) [µg/mL]	MIC [3] [µg/mL]	MIC [4] [µg/mL]	MIC [5] [µg/mL]	MIC (Shigella sonnei IID 969) [µg/mL]	MIC [6] [µg/mL]	MIC (P. aeruginosa IID 1210) [µg/mL]	MIC [7] [µg/mL]	MIC (B. fragilis 25285) [µg/mL]	MIC [8] [µg/mL]	MIC (C. ramosum) [µg/mL]	MIC (S. pyogenes 3107) [µg/mL]	MIC (S. pyogenes 4372) [µg/mL]	MIC (S. agalactiae 4394) [µg/mL]	MIC (S. agalactiae 4468) [µg/mL]	MIC (S. faecalis 49) [µg/mL]	MIC (S. faecalis 214) [µg/mL]	MIC (S. faecalis 401) [µg/mL]	ED50 (E. coli ML4707) [mg/kg]	further results
CCNCC1CCN(c2c(F)cc3c(=O)c(C(=O)O)cn(C4CC4)c3c2Br)C1 (stereo not drawn) [Example 17, 8-Bromo-l-cyclopropyl-7-(3-ethylaminomethyl-l-pyrrolidinyl)-6-fluoro-1,4-dihydro-4-oxo-3-quinolinecarboxylic acid]	0.05 (≈ 0.111 µM)	0.05 (≈ 0.111 µM)	0.1 (≈ 0.221 µM)	0.05 (≈ 0.111 µM)	0.1 (≈ 0.221 µM)	0.025 (≈ 0.0553 µM)	0.39 (≈ 0.862 µM)	1.56 (≈ 3.45 µM)	0.1 (≈ 0.221 µM)	≤ 0.05	0.39 (≈ 0.862 µM)	0.39 (≈ 0.862 µM)	0.05 (≈ 0.111 µM)	0.05 (≈ 0.111 µM)	0.1 (≈ 0.221 µM)	0.05 (≈ 0.111 µM)	0.1 (≈ 0.221 µM)	0.1 (≈ 0.221 µM)	0.1 (≈ 0.221 µM)	0.9	MIC [1, 9]: 0.0125 µg/mL (≈ 0.0276 µM); MIC (S. aureus Smith; read-out: MIC): 0.0125 µg/mL (≈ 0.0276 µM); MIC [2, 10]: 0.025 µg/mL (≈ 0.0553 µM); MIC (S. epidermidis IID 866; [11]): 0.025 µg/mL (≈ 0.0553 µM); activity against gram-negative bacterial infections compared with the reference compounds (E. coli ML4707; systemic infection in mice, result in words): greater activity against gram-negative bacterial infections than the reference compounds
NCC1CCN(c2c(F)cc3c(=O)c(C(=O)O)cn(C4CC4)c3c2Br)C1 (stereo not drawn) [Example 15, 7-(3-Aminomethyl-l-pyrrolidinyl)-8-bromo-l-cyclopropyl-6-fluoro-1,4-dihydro-4-oxo-3-quinolinecarboxylic acid]	0.05 (≈ 0.118 µM)	0.1 (≈ 0.236 µM)	0.05 (≈ 0.118 µM)	0.025 (≈ 0.0589 µM)	0.025 (≈ 0.0589 µM)	0.0125 (≈ 0.0295 µM)	0.1 (≈ 0.236 µM)	0.78 (≈ 1.84 µM)	0.1 (≈ 0.236 µM)	≤ 0.05	0.39 (≈ 0.919 µM)	0.39 (≈ 0.919 µM)	0.05 (≈ 0.118 µM)	0.05 (≈ 0.118 µM)	0.2 (≈ 0.471 µM)	0.05 (≈ 0.118 µM)	0.2 (≈ 0.471 µM)	0.2 (≈ 0.471 µM)	0.2 (≈ 0.471 µM)	7.1	MIC ([1]; Bacillus subtilis): 0.0125 µg/mL (≈ 0.0295 µM); MIC (S. aureus Smith): 0.0125 µg/mL (≈ 0.0295 µM); MIC ([2]; IID670): 0.0125 µg/mL (≈ 0.0295 µM); MIC (S. epidermidis IID 866; IID866): 0.0125 µg/mL (≈ 0.0295 µM)
CNCC1CCN(c2c(F)cc3c(=O)c(C(=O)O)cn(C4CC4)c3c2Br)C1 (stereo not drawn) [Example 16, 8-Bromo-1-cyclopropyl-6-fluoro-1,4-dihydro-7-(3-methylaminomethyl-l-pyrrolidinyl)-4-oxo-3-quinolinecarboxylic acid]	0.05 (≈ 0.114 µM)	0.05 (≈ 0.114 µM)	0.1 (≈ 0.228 µM)	0.05 (≈ 0.114 µM)	0.05 (≈ 0.114 µM)	0.025 (≈ 0.057 µM)	0.2 (≈ 0.456 µM)	1.56 (≈ 3.56 µM)	0.2 (≈ 0.456 µM)	0.1 (≈ 0.228 µM)	0.39 (≈ 0.89 µM)	0.39 (≈ 0.89 µM)	0.05 (≈ 0.114 µM)	0.05 (≈ 0.114 µM)	0.1 (≈ 0.228 µM)	0.05 (≈ 0.114 µM)	0.1 (≈ 0.228 µM)	0.1 (≈ 0.228 µM)	0.1 (≈ 0.228 µM)	1.9	MIC [1, 9]: 0.0125 µg/mL (≈ 0.0285 µM); MIC (S. aureus Smith; read-out: MIC): 0.0125 µg/mL (≈ 0.0285 µM); MIC [2, 10]: 0.025 µg/mL (≈ 0.057 µM); MIC (S. epidermidis IID 866; [11]): 0.025 µg/mL (≈ 0.057 µM)
